{"source": "the supplement of paper PMC11208160", "data": [{"assay": "recombinant UMI read abundance after kanamycin selection (control-corrected) (log10(CPM+1)); higher = more efficient recombination; extreme values may be limits of the assay; sequences stand for … in AGTGCAGAGAAAATCGGCCAGTTTTCTCTGCCTGCAGTCCGCATGCCGTGGGACCCCTTGGGTTCTAACCTGTTGCCTAGATTTATGCAGCGGACTGCCTTTCTCCCAAAGTGATAAACCGG…AGGTTGGTTTCACT; site = the 11-nt donor", "method_in_brief": "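Pooled Escherichia coli screen of donor and donor-binding-loop pairs for the IS621 bridge recombinase. Each pair sits with a 12-nt UMI on a plasmid carrying a promoterless kanamycin gene. The library was co-electroporated with a target plasmid encoding a fixed target and T7-inducible recombinase, then plated with IPTG (0.07 mM) plus kanamycin, or unselected, each in two replicates. Recombinant UMIs were PCR-amplified across the donor–target junction and sequenced. Counts became CPM, averaged over replicates, scaled by control-derived factors and reported as log10(CPM+1).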", "values": [{"sequence": "GGACAGACATGGACCGGTTTTCCCGGTAATCCGTATTTGCC (site GGACAGACTGG)", "recombinant UMI read abundance (log10)": 2.42}, {"sequence": "GGACAGACATGGACCGGTTTTCCCGGTAATCCGTATTTGCC (site GGAGAGACTGG)", "recombinant UMI read abundance (log10)": 0}, {"sequence": "GGACAGACATGGACCGGTTTTCCCGGTAATCCGTATTTGCC (site GGATAGACTGG)", "recombinant UMI read abundance (log10)": 1.84}, {"sequence": "GGACAGTCATGGACCGGTTTTCCCGGTAATCCGTATTTGTC (site GGACAGTCTGA)", "recombinant UMI read abundance (log10)": 3.04}, {"sequence": "GGACCAACATGGACCGGTTTTCCCGGTAATCCGTATTTGTA (site GGACCAACTTA)", "recombinant UMI read abundance (log10)": 1.09}, {"sequence": "GGACCAACATGGACCGGTTTTCCCGGTAATCCGTATTTGTA (site GGCCCAACTTA)", "recombinant UMI read abundance (log10)": 0.00566}, {"sequence": "GGACCAACATGGACCGGTTTTCCCGGTAATCCGTATTTGTA (site GGGCCAACTTA)", "recombinant UMI read abundance (log10)": 0.0083}, {"sequence": "GGACCAACATGGACCGGTTTTCCCGGTAATCCGTATTTGTA (site GGTCCAACTTA)", "recombinant UMI read abundance (log10)": 0.0428}, {"sequence": "GGACGTACATGGACCGGTTTTCCCGGTAATCCGTATTTGTG (site GGACGTACTCA)", "recombinant UMI read abundance (log10)": 1.09}, {"sequence": "GGACTGGCATGGACCGGTTTTCCCGGTAATCCGTATTTGGT (site GGAATGGCTAC)", "recombinant UMI read abundance (log10)": 0.00409}, {"sequence": "GGACTGGCATGGACCGGTTTTCCCGGTAATCCGTATTTGGT (site GGACTGGCTAC)", "recombinant UMI read abundance (log10)": 0.371}, {"sequence": "GGACTGGCATGGACCGGTTTTCCCGGTAATCCGTATTTGGT (site GGAGTGGCTAC)", "recombinant UMI read abundance (log10)": 0.0324}, {"sequence": "GGACTGGCATGGACCGGTTTTCCCGGTAATCCGTATTTGGT (site GGATTGGCTAC)", "recombinant UMI read abundance (log10)": 0.0234}, {"sequence": "GGACTTCCATGGACCGGTTTTCCCGGTAATCCGTATTTGGT (site GGACTTCCTAC)", "recombinant UMI read abundance (log10)": 1.16}, {"sequence": "GGAGAGACATGGACCGGTTTTCCCGGTAATCCGTATTTGCC (site GGAAAGACTGG)", "recombinant UMI read abundance (log10)": 0}, {"sequence": "GGAGAGACATGGACCGGTTTTCCCGGTAATCCGTATTTGCC (site GGACAGACTGG)", "recombinant UMI read abundance (log10)": 0}, {"sequence": "GGAGAGACATGGACCGGTTTTCCCGGTAATCCGTATTTGCC (site GGAGAGACTGG)", "recombinant UMI read abundance (log10)": 0}, {"sequence": "GGAGAGACATGGACCGGTTTTCCCGGTAATCCGTATTTGCC (site GGATAGACTGG)", "recombinant UMI read abundance (log10)": 0}, {"sequence": "GGAGATTCATGGACCGGTTTTCCCGGTAATCCGTATTTGAC (site GGAGATTCTGT)", "recombinant UMI read abundance (log10)": 0}, {"sequence": "GGAGCACCATGGACCGGTTTTCCCGGTAATCCGTATTTGCA (site GGAGCACCTTG)", "recombinant UMI read abundance (log10)": 0}, {"sequence": "GGAGCACCATGGACCGGTTTTCCCGGTAATCCGTATTTGCA (site GGCGCACCTTG)", "recombinant UMI read abundance (log10)": 0}, {"sequence": "GGAGCACCATGGACCGGTTTTCCCGGTAATCCGTATTTGCA (site GGGGCACCTTG)", "recombinant UMI read abundance (log10)": 0}, {"sequence": "GGAGCACCATGGACCGGTTTTCCCGGTAATCCGTATTTGCA (site GGTGCACCTTG)", "recombinant UMI read abundance (log10)": 0.00599}, {"sequence": "GGAGCCCCATGGACCGGTTTTCCCGGTAATCCGTATTTGGG (site GGAGCCCCTCC)", "recombinant UMI read abundance (log10)": 0.00903}, {"sequence": "GGAGGCCCATGGACCGGTTTTCCCGGTAATCCGTATTTGCC (site GGAGGCCCTGG)", "recombinant UMI read abundance (log10)": 0}, {"sequence": "GGAGGTACATGGACCGGTTTTCCCGGTAATCCGTATTTGAC (site GAAGGTACTGT)", "recombinant UMI read abundance (log10)": 0.759}, {"sequence": "GGAGGTACATGGACCGGTTTTCCCGGTAATCCGTATTTGAC (site GCAGGTACTGT)", "recombinant UMI read abundance (log10)": 0.553}, {"sequence": "GGAGGTACATGGACCGGTTTTCCCGGTAATCCGTATTTGAC (site GGAGGTACTGT)", "recombinant UMI read abundance (log10)": 1.39}, {"sequence": "GGAGGTACATGGACCGGTTTTCCCGGTAATCCGTATTTGAC (site GTAGGTACTGT)", "recombinant UMI read abundance (log10)": 0}, {"sequence": "GGAGTAGCATGGACCGGTTTTCCCGGTAATCCGTATTTGGT (site GGAGTAGCTAC)", "recombinant UMI read abundance (log10)": 1.18}, {"sequence": "GGAGTAGCATGGACCGGTTTTCCCGGTAATCCGTATTTGGT (site GGAGTCGCTAC)", "recombinant UMI read abundance (log10)": 0.0165}, {"sequence": "GGAGTAGCATGGACCGGTTTTCCCGGTAATCCGTATTTGGT (site GGAGTGGCTAC)", "recombinant UMI read abundance (log10)": 0.49}, {"sequence": "GGAGTAGCATGGACCGGTTTTCCCGGTAATCCGTATTTGGT (site GGAGTTGCTAC)", "recombinant UMI read abundance (log10)": 0}, {"sequence": "GGAGTATCATGGACCGGTTTTCCCGGTAATCCGTATTTGAC (site CTAGTATCTGT)", "recombinant UMI read abundance (log10)": 0}, {"sequence": "GGAGTATCATGGACCGGTTTTCCCGGTAATCCGTATTTGAC (site GGAGTATCTGT)", "recombinant UMI read abundance (log10)": 2.66}, {"sequence": "GGAGTCGCATGGACCGGTTTTCCCGGTAATCCGTATTTGCG (site GAAGTCGCTCG)", "recombinant UMI read abundance (log10)": 0.00287}, {"sequence": "GGAGTCGCATGGACCGGTTTTCCCGGTAATCCGTATTTGCG (site GCAGTCGCTCG)", "recombinant UMI read abundance (log10)": 0.021}, {"sequence": "GGAGTCGCATGGACCGGTTTTCCCGGTAATCCGTATTTGCG (site GGAGTCGCTCG)", "recombinant UMI read abundance (log10)": 1.28}, {"sequence": "GGAGTCGCATGGACCGGTTTTCCCGGTAATCCGTATTTGCG (site GTAGTCGCTCG)", "recombinant UMI read abundance (log10)": 0.0226}, {"sequence": "GGAGTCTCATGGACCGGTTTTCCCGGTAATCCGTATTTGTC (site GGAGTCTCTGA)", "recombinant UMI read abundance (log10)": 2.36}, {"sequence": "GGAGTGCCATGGACCGGTTTTCCCGGTAATCCGTATTTGGA (site GGAGTGCCTTC)", "recombinant UMI read abundance (log10)": 0.0188}, {"sequence": "GGAGTGTCATGGACCGGTTTTCCCGGTAATCCGTATTTGGT (site GGAGTGACTAC)", "recombinant UMI read abundance (log10)": 0.192}, {"sequence": "GGAGTGTCATGGACCGGTTTTCCCGGTAATCCGTATTTGGT (site GGAGTGCCTAC)", "recombinant UMI read abundance (log10)": 0.00939}, {"sequence": "GGAGTGTCATGGACCGGTTTTCCCGGTAATCCGTATTTGGT (site GGAGTGGCTAC)", "recombinant UMI read abundance (log10)": 0.0122}, {"sequence": "GGAGTGTCATGGACCGGTTTTCCCGGTAATCCGTATTTGGT (site GGAGTGTCTAC)", "recombinant UMI read abundance (log10)": 1.71}, {"sequence": "GGATAATCATGGACCGGTTTTCCCGGTAATCCGTATTTGAA (site GGATAATCTTT)", "recombinant UMI read abundance (log10)": 2.84}, {"sequence": "GGATAGACATGGACCGGTTTTCCCGGTAATCCGTATTTGAC (site GGATAGACTGA)", "recombinant UMI read abundance (log10)": 0}, {"sequence": "GGATAGACATGGACCGGTTTTCCCGGTAATCCGTATTTGAC (site GGATAGACTGC)", "recombinant UMI read abundance (log10)": 0.822}, {"sequence": "GGATAGACATGGACCGGTTTTCCCGGTAATCCGTATTTGAC (site GGATAGACTGG)", "recombinant UMI read abundance (log10)": 1.9}, {"sequence": "GGATAGACATGGACCGGTTTTCCCGGTAATCCGTATTTGAC (site GGATAGACTGT)", "recombinant UMI read abundance (log10)": 3.21}, {"sequence": "GGATAGACATGGACCGGTTTTCCCGGTAATCCGTATTTGCC (site AGATAGACTGG)", "recombinant UMI read abundance (log10)": 2.1}, {"sequence": "GGATAGACATGGACCGGTTTTCCCGGTAATCCGTATTTGCC (site CGATAGACTGG)", "recombinant UMI read abundance (log10)": 0.635}, {"sequence": "GGATAGACATGGACCGGTTTTCCCGGTAATCCGTATTTGCC (site GAATAGACTGG)", "recombinant UMI read abundance (log10)": 1.5}, {"sequence": "GGATAGACATGGACCGGTTTTCCCGGTAATCCGTATTTGCC (site GCATAGACTGG)", "recombinant UMI read abundance (log10)": 2.11}, {"sequence": "GGATAGACATGGACCGGTTTTCCCGGTAATCCGTATTTGCC (site GGAAAGACTGG)", "recombinant UMI read abundance (log10)": 0}, {"sequence": "GGATAGACATGGACCGGTTTTCCCGGTAATCCGTATTTGCC (site GGACAGACTGG)", "recombinant UMI read abundance (log10)": 2.55}, {"sequence": "GGATAGACATGGACCGGTTTTCCCGGTAATCCGTATTTGCC (site GGAGAGACTGG)", "recombinant UMI read abundance (log10)": 0}, {"sequence": "GGATAGACATGGACCGGTTTTCCCGGTAATCCGTATTTGCC (site GGATAAACTGG)", "recombinant UMI read abundance (log10)": 2.06}, {"sequence": "GGATAGACATGGACCGGTTTTCCCGGTAATCCGTATTTGCC (site GGATACACTGG)", "recombinant UMI read abundance (log10)": 1.54}, {"sequence": "GGATAGACATGGACCGGTTTTCCCGGTAATCCGTATTTGCC (site GGATAGACTAG)", "recombinant UMI read abundance (log10)": 0.852}, {"sequence": "GGATAGACATGGACCGGTTTTCCCGGTAATCCGTATTTGCC (site GGATAGACTCG)", "recombinant UMI read abundance (log10)": 0.799}, {"sequence": "GGATAGACATGGACCGGTTTTCCCGGTAATCCGTATTTGCC (site GGATAGACTGA)", "recombinant UMI read abundance (log10)": 1.38}, {"sequence": "GGATAGACATGGACCGGTTTTCCCGGTAATCCGTATTTGCC (site GGATAGACTGC)", "recombinant UMI read abundance (log10)": 0}, {"sequence": "GGATAGACATGGACCGGTTTTCCCGGTAATCCGTATTTGCC (site GGATAGACTGG)", "recombinant UMI read abundance (log10)": 2.73}, {"sequence": "GGATAGACATGGACCGGTTTTCCCGGTAATCCGTATTTGCC (site GGATAGACTGT)", "recombinant UMI read abundance (log10)": 1.32}, {"sequence": "GGATAGACATGGACCGGTTTTCCCGGTAATCCGTATTTGCC (site GGATAGACTTG)", "recombinant UMI read abundance (log10)": 1.75}, {"sequence": "GGATAGACATGGACCGGTTTTCCCGGTAATCCGTATTTGCC (site GGATAGCCTGG)", "recombinant UMI read abundance (log10)": 0.943}, {"sequence": "GGATAGACATGGACCGGTTTTCCCGGTAATCCGTATTTGCC (site GGATAGGCTGG)", "recombinant UMI read abundance (log10)": 1.98}, {"sequence": "GGATAGACATGGACCGGTTTTCCCGGTAATCCGTATTTGCC (site GGATAGTCTGG)", "recombinant UMI read abundance (log10)": 1.62}, {"sequence": "GGATAGACATGGACCGGTTTTCCCGGTAATCCGTATTTGCC (site GGATATACTGG)", "recombinant UMI read abundance (log10)": 2.8}, {"sequence": "GGATAGACATGGACCGGTTTTCCCGGTAATCCGTATTTGCC (site GGATCGACTGG)", "recombinant UMI read abundance (log10)": 0}, {"sequence": "GGATAGACATGGACCGGTTTTCCCGGTAATCCGTATTTGCC (site GGATGGACTGG)", "recombinant UMI read abundance (log10)": 0}, {"sequence": "GGATAGACATGGACCGGTTTTCCCGGTAATCCGTATTTGCC (site GGATTGACTGG)", "recombinant UMI read abundance (log10)": 0}, {"sequence": "GGATAGACATGGACCGGTTTTCCCGGTAATCCGTATTTGCC (site GGCTAGACTGG)", "recombinant UMI read abundance (log10)": 1.03}, {"sequence": "GGATAGACATGGACCGGTTTTCCCGGTAATCCGTATTTGCC (site GGGTAGACTGG)", "recombinant UMI read abundance (log10)": 0.24}]}]}
